“Also recorded” adds a separate entry of the source.
Assays:
[1] = test system: Eμ-TCL1 CLL cells; assay: Cell proliferation XTT assay, Eμ-TCL1 CLL cells; type: cell-based, mouse; details: 20 μM, 3 days
Description: (§1) Eμ-TCL1, MEC1, MEC2, WaC3, or primary human CLL cells were grown in 96-well cell culture plates overnight and then treated with fresh phenol red-free culture medium containing STF-083010 (50 μM), A-I06 (50 μM), A-I07 (50 μM) or fludarabine (30 μM). […] Briefly, 50 μl XTT labeling reagent was combined with 100 μl electron-coupling reagent, and the mixture was applied to each well of the 96-well plates. The test was based on cleavage of the yellow tetrazolium salt XTT by mitochondrial dehydrogenases of the metabolic active cells to form the orange formazan compound, which can be spectrophotometrically quantified at 492 nm using a BioTek microplate reader.

[2] = Pharmacokinetics of B-I09 in mouse plasma; type: in vivo; details: 50 mg/kg intraperitoneally
Description: In vivo pharmacokinetics studies were carried out at Agilux Laboratories, Inc. (Worchester, Mass.) using male CD-1 mice (Charles River Laboratories, Wilmington, Mass.). B-I09 was administered intraperitoneally at 50 mg/kg as a solution in DMSO to a group of 3 male CD-1 mice. Compound blood was collected via tail snip into calibrated microvette tubes containing K2EDTA at 0.25, 0.5, 1, 2, 4, 8, and 24 h post dosing. Blood samples were stored on wet ice until processed to plasma by centrifugation within 1 hour of collection. All plasma samples were transferred to 96 well plates and stored at −80° C. until analyzed for B-I09 concentration via LC/MS/MS using a C18 RP-HPLC column (2.1×50 mm) and an acetonitrile:water (with 0.1% formic acid) mobile phase elution gradient. B-I09 was quantified by analysis with API 5500 TurbolonSpray positive ion MS detection. A non-compartmental model was applied to calculate pharmacokinetic parameters using WinNonlin 4.2 software.

[3] = test system: XBP-1 mRNA splicing; assay: XBP-1 mRNA splicing by RT-PCR; type: cell-based; details: human WaC3 CLL cells, 24 h
Description: Total RNA was isolated using TRIzol reagent (Invitrogen). Complementary DNA was synthesized from RNA using Superscript II reverse transcriptase (Invitrogen).

[4] = test system: XBP-1s expression; assay: Inhibition of XBP-1s expression in LPS-stimulated mouse B cells (immunoblots); type: cell-based; details: LPS 48 h, then inhibitor 20 μM for 24 h (Example 3 prints 20 mM)
Description: The protein concentrations of the supernatants were determined by BCA assay (Pierce). […] Proteins were transferred to nitrocellulose membranes, blocked in 5% milk (wt/vol in PBS), and immunoblotted with the indicated antibodies and appropriate horseradish peroxidase-conjugated secondary antibodies. Following multiple washes in PBS, the blots were developed using Western Lighting Chemiluminescence Reagent (Perkin-Elmer).
(§2) Protein concentrations were determined by BCA assays (Pierce). […] Proteins were transferred to nitrocellulose membranes, blocked in 5% non-fat milk (wt/vol in PBS), and immunoblotted with indicated primary antibodies and appropriate horseradish peroxidase-conjugated secondary antibodies. Immunoblots were developed using Western Lighting Chemiluminescence Reagent (Perkin-Elmer).

[5] = test system: primary human CLL cells; assay: Cell proliferation XTT assay, primary human CLL cells; type: cell-based; details: 20 μM, 3 days
Description: as §1

[6] = test system: CLL-bearing Eμ-TCL1 mice; type: in vivo
Description: (B) CLL-bearing Eμ-TCL1 mice were intraperitoneally injected with DMSO (n=3) or B-I09 (50 mg/kg in DMSO, n=8) daily for the first 5 days weekly for three weeks. Blood was collected to measure lymphocyte numbers using a HemaTrue Hematology Analyzer (HESKA). Data were compared with lymphocyte counts prior to B-I09 injections, and plotted as mean±SEM. (C) Lymphocyte counts in the peripheral blood of B-I09-treated Eμ-TCL1 mice (n=8) were plotted as mean±SEM. […] (E) Splenocytes from DMSO- or B-I09-injected Eμ-TCL1 mice were stained with IgM-PE-Cy7, B220-FITC, CD5-APC, Annexin V-PE and 7-AAD. Gated IgM+/B220+/CD5+ splenic CLL cells were analyzed for Annexin V- and/or 7-AAD-positive populations. (F) Percentages of apoptotic cells in gated IgM^+/B220^+/CD5^+ CLL populations from spleens of DMSO-injected (n=3) or B-I09-injected (n=8) Eμ-TCL1 mice were plotted as mean±SEM. (G) Weight of DMSO-injected (n=3) or B-I09-injected (n=8) Eμ-TCL1 mice was plotted as mean±SD. (H) Paraffin-embedded sections of indicated organs from Eμ-TCL1 mice receiving three weeks of injections with DMSO or B-I09 were stained with hematoxylin and eosin.
Tumor-bearing Eμ-TCL1 mice in which CLL cells comprise the majority of the lymphocytes in the peripheral blood (FIG. 33) were selected. The mice were then treated with 50 mg/kg B-I09 on the first five days of each week for three weeks. […] Since CLL cells proliferate in secondary lymphoid organs and are protected from cell death through interactions with microenvironments, whether B-I09 has an effect on CLL cells residing in the spleen was evaluated.

[7] = Degradation (chemical stability) studies by HPLC/LCMS; type: physicochemical
Description: The degradation of analog 24 was plotted as a function of time upon exposure to FRET-suppression assay buffer at rt. Aliquots were partitioned with MeOH and injected onto LCMS (UV monitored at 320 nm) and peaks integrated relative to internal standard.
A 20 mM stock solution of B-I09 in DMSO was diluted to 0.5 mM in FRET assay buffer (20 mM HEPES, pH 7.5, 50 mM KOAc, 0.5 mM MgCl2, 3 mM DTT, 0.4% PEG) or cell culture media (RPMI supplemented with 10% fetal bovine serum). The FRET assay buffer and cell culture media solutions were incubated at room temperature and 37° C., respectively. At various time points, a 50 μL aliquot of each solution was added to 50 μL of methanol and the mixture analyzed by analytical reverse-phase HPLC (C18 4 mm×150 mm column, 1 mL/min flow rate) with acetonitrile/water (0.1% formic acid) as eluent. Absorbance was read at 320 nm and the degradation product (aldehyde) was identified by LCMS and co-injection with pure synthetic sample. Degradation studies were carried out in duplicate and data points reported as the mean of two values.

[8] = Aqueous solubility (stated in words); type: physicochemical
[9] = test system: phosphorylation of BTK; assay: BCR activation and phosphorylation assay; type: cell-based; details: wild-type and Eμ-TCL1 B cells, B-I09 20 μM, F(ab′)2 anti-mouse IgM
Description: XBP-1^WT/Eμ-TCL1 B cells, XBP-1^KO/Eμ-TCL1 B cells, B-I09-treated wild-type B cells or B-I09-treated Eμ-TCL1 B cells were suspended in RPMI serum-free media supplemented with 25 mM Hepes, stimulated with F(ab′)^2 fragments of the goat anti-mouse IgM antibody (20 μg/ml) (SouthemBiotech) for 2 min, and lysed immediately by adding ice-cold lysis buffer (50 mM Tris-HCl, pH 8.0; 150 mM NaCl; 1% Triton X-100; 1 mM EDTA) supplemented with protease inhibitor cocktail (Roche), 4 mM sodium pyrophosphate, 2 mM sodium vanadate and 10 mM sodium fluoride. The lysates were analyzed by SDS-PAGE. Phosphorylated proteins of interest were detected by immunoblots using phospho-specific antibodies.

[10] = test system: XBP-1s expression in Mino cells; assay: Inhibition of XBP-1s expression in Mino cells (immunoblots and densitometry); type: cell-based, human; details: various doses, 24 h
Description: as §2

[11] = test system: XBP-1s expression in Jeko cells; assay: Inhibition of XBP-1s expression in Jeko cells (immunoblots and densitometry); type: cell-based, human; details: various doses, 24 h
Description: as §2

[12] = test system: Mino and Jeko cells; assay: PARP cleavage by immunoblot in Mino and Jeko cells; details: 50 mM (so in the source), 72 h
Description: Cells were lysed for the analysis of the indicated proteins by immunoblot.
as §2

[13] = test system: WaC3; assay: cells; details: Homo sapiens, 48 h, read-out: GI50 (50% growth inhibition) concentration
[14] = test system: MEC2; assay: cells; details: Homo sapiens, MEC2, 48 h, read-out: GI50 (50% growth inhibition) concentration
[15] = test system: MEC1; assay: cells; details: Homo sapiens, MEC1, 48 h, read-out: GI50 (50% growth inhibition) concentration

## O=c1oc2c(C3OCCCO3)c(O)ccc2c2c1CNCC2 [Compound 28, 7-(1,3-dioxan-2-yl)-8-hydroxy-3,4-dihydro-1H-chromeno[3,4-c]pyridin-5(2H)-one]
[1]
  inhibition of mouse CLL cell growth (in words): more effective than B-H09 and 4μ8C
[2]
  peak concentration: ~39 µM
  time of peak concentration after administration: 15 min
[2]; male, CD-1, ip
  half-life: ~1.5 h
[3]
  inhibition of splicing of XBP-1 mRNA (in words): highly effective
[4]
  inhibition of XBP-1s expression (in words): highly effective
[5]
  inhibition of growth of CLL cells from human patients (in words): most potent inhibitor
[6]; 50 mg/kg for three weeks vs DMSO
  apoptotic CD5+ CLL cells in the spleens (in words): significant increase
[6]; 50 mg/kg i.p., first five days of each week for three weeks
  CLL in the peripheral blood (in words): Clear CLL regression
[6]; after three weeks, normal range 500-5000 cells/μL
  numbers of lymphocytes in the peripheral blood (in words): dropped close to the normal range
[6]; immunoblots, B-I09-injected mice
  expression of XBP-1s in CLL cells from peripheral blood (in words): inhibits the expression of XBP-1s
[6]; three weeks of treatment
  adverse effects or toxicity to mice (in words): no apparent adverse effects or toxicity
  weight loss and histological changes to vital organs (liver, lungs, kidney, heart): no significant weight loss or apparent histological changes
[7]; 37° C., 24 h
  fraction intact in cell culture media: greater than 50%
[7]; cell culture media, 37° C., read-out: t1/2 in cell culture media (converted)
  half-life at 0.5 mM: ~30 h
[7]; room temperature, up to 48 h, listed as B-I09
  stability of 1,3-dioxane group in FRET-suppression assay buffer (in words): remains completely intact; also recorded: stable
[8]
  solubility (in words): water soluble
[9]
  BCR signaling, phosphorylation of BTK (in words): reduced phosphorylation of BTK

## CC(=O)N1CCc2c(c(=O)oc3c(C=O)c(O)ccc23)C1 [Compound 29, 3-acetyl-8-hydroxy-5-oxo-2,3,4,5-tetrahydro-1H-chromeno[3,4-c]pyridine-7-carbaldehyde]
[10]
  IC50 for blocking XBP-1s expression (in words): sub-micromolar range
[11]
  IC50 for blocking XBP-1s expression (in words): sub-micromolar range

## CN1CCc2c(c(=O)oc3c(C=O)c(O)ccc23)C1 [Compound 30, 8-hydroxy-3-methyl-5-oxo-2,3,4,5-tetrahydro-1H-chromeno[3,4-c]pyridine-7-carbaldehyde]
[12]
  PARP cleavage (in words): induced PARP cleavage more strongly than either 21b or 5

## C=CC(=O)N1CCC[C@@H](n2nc(-c3ccc(Oc4ccccc4)cc3)c3c(N)ncnc32)C1 [ibrutinib]
[13]
  GI50: 10 to 20 µM
[14]
  GI50: 10 to 20 µM
[15]
  GI50: 10 to 20 µM

Source: US10323013B2, “Inhibitors of the IRE-1/XBP-1 pathway and methods of using thereof” (H. LEE MOFFITT CANCER CENTER AND RESEARCH INSTITUTE, INC., priority 2013, dated 2019)
